Assay results published in patent US20190224187A1, “NEW USE OF ISOQUINOLINE DERIVATIVES FOR WOUND HEALING” (ZIH YUAN TANG Biotechnology Co., Ltd, priority 2018, published 2019).

Tests used:
[1] = test system: AMP-dependent protein kinase (AMPK); conditions: U.S. Pat. No. 9,707,222; cited from earlier work
blood glucose = conditions: U.S. Pat. No. 9,707,222; cited from earlier work
[2] = test system: excisional full-thickness square-shaped skin wound; assay: Effect of salsolinol ointment on excisional full-thickness skin wound healing in guinea pigs; format: in vivo; conditions: for recover rate of wound vs vehicle control: another experiment; for wound recovery (wound images) vs vehicle controls: FIG. 3
Protocol: Salsolinol ointments at 0.01 mg/g, 0.03 mg/g and 0.1 mg/g were prepared respectively by dissolving 0.5 mg, 1.5 mg, and 5 mg of salsoinol in 2.5 mL of glycerol (Sigma Inc., MO, USA) plus 1.0 mL of Creagel emulsifier (First Chemical, TPE, Taiwan) and 45.5 mL of distilled water. Vehicle was composed of glycerol (2.5 mL), Creagel emulsifier (1.0 mL), and distilled water (45.5 mL).
Guinea pigs were purchased and were acclimatized at a room temperature, and had free access to water. All experimental procedures were approved by and performed in compliance with the guidelines of the Institutional Animal Care and Use Committee (IACUC). All surgeries were conducted while animals were under continuous anesthesia with 4% isoflurane.
The dorsal skin was shaved and then disinfected with 10% povidone-iodine before an excisional full-thickness square-shaped skin wound (1.0×1.0 cm) was induced using a sterile wound maker. Animals were then housed alone in its cage to avoid any further wound damage.
Animals were randomly divided into six groups (n=5 or 6, each group) as follows: • (1) animals treated with salsolinol at a concentration of 0.01 mg/g (C0.01, n=6); • (2) animal treated with the vehicle (V0.01) as compared with the group C0.01; • (3) animal treated with salsolinol at a concentration of 0.03 mg/g (C0.03, n=5); • (4) animal treated with the vehicle (V0.03) as compared with the group C0.03.
The groups were administered at the same amount of the salsolinol at 0.01 mg/g, and 0.03 mg/g or the vechile at the same amount once daily and the wounds were photopictured on Day 1, Day 3, Day 5, Day 7, Day 10, and Day 14. The sizes of the wounds were analyzed using Visual Basic 6.0. The rate of wound recovery at each experimental time point is calculated by the size of the wound as compared with that of the wound at D1, wherein the rate of wound recovery at Day 1 is 1.0.
In another experiment, the wounds of the guinea pigs were treated with salsolinol at a concentration of 0.001 mg/g, 0.01 mg/g or the vehicle at the same amount once daily and the wounds were photopictured on Day 1, Day 3, Day 5, Day 7, Day 10, and Day 14. The sizes of the wounds were analyzed using Visual Basic 6.0. The recovery rate of the wound at each experimental time point was calculated by the size of the wound as compared with that of the wound at D1, wherein the recover rate of wound at Day 1 is 0.0%.

Row | SMILES | activation of AMPK [1] | efficacy in reducing blood glucose (blood glucose) | recover rate of wound vs vehicle control ([2]; salsolinol 0.001 mg/g (C0.001) once daily, FIG. 4) | recover rate of wound vs vehicle control ([2]; salsolinol 0.01 mg/g (C0.01) once daily, after Day 3, p<0.05, FIG. 5) | wound healing (rate of wound recovery) vs vehicle control ([2]; salsolinol 0.01 mg/g (C0.01) once daily vs V0.01, Day 3, Day 5 and Day 7, p<0.01, FIG. 1) | wound recovery (wound images) vs vehicle controls ([2]; salsolinol 0.01 mg/g) | wound healing (rate of wound recovery) vs vehicle control ([2]; salsolinol 0.03 mg/g (C0.03) once daily vs V0.03, Day 3, p<0.05, FIG. 2) | wound recovery (wound images) vs vehicle controls ([2]; salsolinol 0.03 mg/g) | wound recovery (wound images) vs vehicle controls ([2]; salsolinol 0.1 mg/g) | wound recovery vs control groups (summary) ([2]; salsolinol at 0.001 mg/g to 0.03 mg/g, preferably 0.01 mg/g)
1 | COc1ccc(C[C@H]2c3cc(O)c(OC)cc3CCN2C)cc1O [reticuline, reference compound] | can activate | has an efficacy in reducing blood glucose |  |  |  |  |  |  |  | 
2 | CC1NCCc2cc(O)c(O)cc21 (stereo not drawn) [salsolinol] | can activate | has an efficacy in reducing blood glucose | better than that of the control group | significantly better | significantly better | better than the controls | significantly better | better than the controls | better than the controls | enhanced the wound recovery
